Results reported in patent US9730934B2, “Quinazoline derivatives substituted by aniline, preparation method and use thereof” (XUANZHU PHARMA CO., LTD., priority 2010, dated 2017).
Counter-ions that a name gives are not always drawn.

Columns and labels:
Experiment in all cases: In vitro enzyme inhibitory activity (Caliper mobility shift, FAM labeled peptide)
Format in all cases: biochemical
Conditions in all cases: 28° C., 1 h reaction
EGFR = EGFR (Homo sapiens (Human), UniProt P00533)
Description: (§1) In Vitro Enzyme Inhibitory Activity of the Present Compounds
EGFR: human epidermal growth factor receptor (Carna);
(§2) 1. Formulating the agents to be used in the assay
(§3) (6) 5-fold compound solutions (using 100% DMSO to formulate 50-fold compound solutions having different concentration gradients, and diluting with water by 10 times to obtain 5-fold compound solutions having different concentration gradients);
(§4) 2. Adding 5 μL of a 5-fold compound solution to a 384-well plate;
(§5) 3. Adding 10 μL of a 2.5-fold kinase solution to incubate for 10 min;
(§6) 4. Then adding 10 μL of a 2.5-fold peptide solution, and reacting at 28° C. for 1 h; and
(§7) 5. Finally, adding 25 μL of stop buffer to terminate the reaction, and reading the data with Caliper.
(§8) 6. Curve fitting to obtain an IC50 value. The calculated inhibition ratio (%)=(the maximum conversion rate−the conversion rate)/(the maximum conversion rate−the minimum conversion rate)×100
(§9) The curve fitting was conducted with the Xlfit software to obtain IC50 values.

HER2 = HER2 (Homo sapiens (Human), UniProt P04626)
Description: as §1
HER2: human epidermal growth factor receptor 2 (Carna);
as §2, §3, §4, §5, §6, §7, §8, §9

HER4 = HER4 (Homo sapiens (Human), UniProt Q15303)
Description: as §1
HER4: human epidermal growth factor receptor 4 (Carna).
as §2, §3, §4, §5, §6, §7, §8, §9

EGFR, sequence (P00533 25-1210): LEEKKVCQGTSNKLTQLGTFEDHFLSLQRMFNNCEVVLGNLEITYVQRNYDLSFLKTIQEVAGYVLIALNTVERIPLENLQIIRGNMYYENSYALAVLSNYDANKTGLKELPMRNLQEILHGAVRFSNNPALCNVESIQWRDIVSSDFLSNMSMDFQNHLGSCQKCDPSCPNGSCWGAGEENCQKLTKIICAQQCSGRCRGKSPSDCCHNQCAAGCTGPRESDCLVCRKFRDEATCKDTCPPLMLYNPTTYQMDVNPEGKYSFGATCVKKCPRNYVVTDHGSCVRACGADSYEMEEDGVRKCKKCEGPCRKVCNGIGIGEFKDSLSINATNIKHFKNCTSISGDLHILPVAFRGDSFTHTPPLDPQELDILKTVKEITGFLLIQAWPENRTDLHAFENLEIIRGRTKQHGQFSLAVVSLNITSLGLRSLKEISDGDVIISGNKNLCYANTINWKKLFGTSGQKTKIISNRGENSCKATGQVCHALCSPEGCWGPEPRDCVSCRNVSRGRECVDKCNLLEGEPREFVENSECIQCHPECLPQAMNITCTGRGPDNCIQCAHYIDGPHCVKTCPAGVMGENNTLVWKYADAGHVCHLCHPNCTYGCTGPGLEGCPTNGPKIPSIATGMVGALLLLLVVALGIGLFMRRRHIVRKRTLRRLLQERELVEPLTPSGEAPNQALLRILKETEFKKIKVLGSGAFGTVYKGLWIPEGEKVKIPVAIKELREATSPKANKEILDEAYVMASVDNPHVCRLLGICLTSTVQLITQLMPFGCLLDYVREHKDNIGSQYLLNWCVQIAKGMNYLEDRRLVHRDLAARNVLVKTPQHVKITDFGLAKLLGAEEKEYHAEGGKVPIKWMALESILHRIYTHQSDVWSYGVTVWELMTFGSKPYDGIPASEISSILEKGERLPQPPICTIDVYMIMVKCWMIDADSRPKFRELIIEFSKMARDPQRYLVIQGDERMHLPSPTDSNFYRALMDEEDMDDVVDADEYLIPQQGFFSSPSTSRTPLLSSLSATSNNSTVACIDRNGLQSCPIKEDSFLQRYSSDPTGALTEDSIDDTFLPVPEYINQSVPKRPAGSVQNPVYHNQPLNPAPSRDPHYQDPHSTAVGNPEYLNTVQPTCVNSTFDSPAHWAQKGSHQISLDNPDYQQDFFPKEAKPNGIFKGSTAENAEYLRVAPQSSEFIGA
HER4, sequence (Q15303 26-1308): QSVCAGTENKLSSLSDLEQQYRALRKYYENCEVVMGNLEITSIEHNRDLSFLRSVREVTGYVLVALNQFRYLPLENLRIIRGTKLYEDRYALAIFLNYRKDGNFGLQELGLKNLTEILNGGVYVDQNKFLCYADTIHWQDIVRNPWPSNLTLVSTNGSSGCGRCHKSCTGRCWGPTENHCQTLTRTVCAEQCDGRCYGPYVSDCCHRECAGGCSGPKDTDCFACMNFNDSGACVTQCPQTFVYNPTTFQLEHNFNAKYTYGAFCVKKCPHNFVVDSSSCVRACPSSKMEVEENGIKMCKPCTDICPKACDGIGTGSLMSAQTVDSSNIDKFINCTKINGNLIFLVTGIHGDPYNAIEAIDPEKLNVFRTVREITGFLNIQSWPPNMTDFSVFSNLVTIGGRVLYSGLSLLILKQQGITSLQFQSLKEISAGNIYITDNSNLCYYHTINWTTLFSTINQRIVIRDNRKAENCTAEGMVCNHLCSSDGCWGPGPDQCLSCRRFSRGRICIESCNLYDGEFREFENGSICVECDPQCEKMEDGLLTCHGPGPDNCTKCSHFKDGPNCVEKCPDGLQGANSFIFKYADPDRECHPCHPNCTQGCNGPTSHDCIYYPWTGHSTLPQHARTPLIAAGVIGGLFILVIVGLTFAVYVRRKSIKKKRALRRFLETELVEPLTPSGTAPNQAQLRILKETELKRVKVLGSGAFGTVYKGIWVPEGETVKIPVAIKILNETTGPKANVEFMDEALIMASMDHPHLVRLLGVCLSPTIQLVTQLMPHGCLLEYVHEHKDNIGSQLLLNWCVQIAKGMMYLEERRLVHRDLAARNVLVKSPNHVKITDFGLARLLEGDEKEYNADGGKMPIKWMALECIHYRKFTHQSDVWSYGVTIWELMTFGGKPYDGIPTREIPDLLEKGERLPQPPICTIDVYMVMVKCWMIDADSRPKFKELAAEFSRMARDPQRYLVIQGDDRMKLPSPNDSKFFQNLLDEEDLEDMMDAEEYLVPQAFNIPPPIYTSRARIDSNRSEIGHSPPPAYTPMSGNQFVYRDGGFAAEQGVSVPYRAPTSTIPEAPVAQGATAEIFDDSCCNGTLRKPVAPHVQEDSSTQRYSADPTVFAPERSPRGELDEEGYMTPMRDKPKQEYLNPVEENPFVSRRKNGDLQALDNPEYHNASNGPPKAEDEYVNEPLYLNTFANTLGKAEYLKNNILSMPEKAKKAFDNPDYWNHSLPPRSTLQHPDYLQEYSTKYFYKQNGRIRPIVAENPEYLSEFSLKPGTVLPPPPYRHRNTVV
HER2, sequence (P04626 23-1255): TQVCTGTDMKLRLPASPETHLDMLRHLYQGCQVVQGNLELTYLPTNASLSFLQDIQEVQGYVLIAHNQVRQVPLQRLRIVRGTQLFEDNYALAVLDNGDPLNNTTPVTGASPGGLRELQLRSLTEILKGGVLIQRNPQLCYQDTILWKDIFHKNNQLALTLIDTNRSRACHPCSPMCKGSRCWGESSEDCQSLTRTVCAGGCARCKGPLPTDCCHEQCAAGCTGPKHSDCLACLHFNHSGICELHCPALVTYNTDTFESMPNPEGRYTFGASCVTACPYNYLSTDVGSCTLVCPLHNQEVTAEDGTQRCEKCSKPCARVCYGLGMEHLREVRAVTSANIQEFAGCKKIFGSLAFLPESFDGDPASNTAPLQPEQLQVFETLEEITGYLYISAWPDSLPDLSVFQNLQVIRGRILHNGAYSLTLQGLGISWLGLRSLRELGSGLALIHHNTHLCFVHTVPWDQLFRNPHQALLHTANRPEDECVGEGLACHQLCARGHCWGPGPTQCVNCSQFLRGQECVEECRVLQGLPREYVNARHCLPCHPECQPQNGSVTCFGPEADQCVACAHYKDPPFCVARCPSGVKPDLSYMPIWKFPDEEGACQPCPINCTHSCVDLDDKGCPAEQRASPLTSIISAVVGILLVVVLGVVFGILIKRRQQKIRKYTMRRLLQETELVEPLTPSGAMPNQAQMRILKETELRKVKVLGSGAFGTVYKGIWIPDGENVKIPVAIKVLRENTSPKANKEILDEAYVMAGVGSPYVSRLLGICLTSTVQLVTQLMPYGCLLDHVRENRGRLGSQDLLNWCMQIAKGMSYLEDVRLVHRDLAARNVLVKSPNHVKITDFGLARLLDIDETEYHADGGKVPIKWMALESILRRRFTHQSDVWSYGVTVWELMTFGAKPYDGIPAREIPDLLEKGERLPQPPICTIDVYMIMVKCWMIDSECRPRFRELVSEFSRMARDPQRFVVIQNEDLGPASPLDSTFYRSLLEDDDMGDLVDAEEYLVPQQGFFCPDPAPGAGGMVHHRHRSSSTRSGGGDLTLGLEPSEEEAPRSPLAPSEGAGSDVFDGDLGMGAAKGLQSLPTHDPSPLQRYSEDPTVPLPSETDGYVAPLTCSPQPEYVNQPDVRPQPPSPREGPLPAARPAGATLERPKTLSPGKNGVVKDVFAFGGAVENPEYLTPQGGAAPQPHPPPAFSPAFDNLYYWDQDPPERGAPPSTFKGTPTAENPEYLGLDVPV

| Structure (SMILES) | IC50 (EGFR) [nM] | IC50 (HER2) [nM] | IC50 (HER4) [nM] |
| --- | --- | --- | --- |
| C=CC(=O)Nc1cc2c(Nc3ccc(F)c(Cl)c3)ncnc2cc1OCC1COC2(CCN(C)CC2)C1 (stereo not shown) [Compound 6, N-[4-(3-chloro-4-fluorophenylamino)-7-((8-methyl-1-oxa-8-azaspiro[4.5]decan-3-yl)methoxy)quinazolin-6-yl]-acrylamide] | 1 | 7.1 | 1.4 |
| C=CC(=O)Nc1cc2c(Nc3ccc(F)c(Cl)c3)ncnc2cc1OCC1CCC2(CCN(C)CC2)O1 (stereo not shown) [Compound 7, N-[4-(3-chloro-4-fluorophenylamino)-7-(8-methyl-1-oxa-8-azaspiro[4.5]decan-2-ylmethoxy)quinazolin-6-yl]-acrylamide] | – | 4.3 | 1.7 |
| C=CC(=O)Nc1cc2c(Nc3ccc(F)c(Cl)c3)ncnc2cc1OCCC1C2CCC1CN(C)C2 (stereo not shown) [Compound 11, N-[4-(3-chloro-4-fluorophenylamino)-7-(2-(3-methyl-3-azabicyclo[3.2.1]octan-8-yl)ethoxy)quinazolin-6-yl]-acrylamide] | 0.8 | 12 | 8.3 |
| C=CC(=O)Nc1cc2c(Nc3ccc(F)c(Cl)c3)ncnc2cc1OCC1CC2(CCN(C)CC2)C1 [Compound 18, N-[4-(3-chloro-4-fluorophenylamino)-7-((7-methyl-7-azaspiro[3.5]nonan-2-yl)methoxy)quinazolin-6-yl]-acrylamide] | 1 | 6.5 | 1.9 |
| C=CC(=O)Nc1cc2c(Nc3ccc(F)c(Cl)c3)ncnc2cc1OCCC1CC2(CCN(C)CC2)C1 [Compound 19 hydrochloride, N-[4-(3-chloro-4-fluorophenylamino)-7-(2-(7-methyl-7-azaspiro[3.5]nonan-2-yl)ethoxy)quinazolin-6-yl]-acrylamide hydrochloride] | 0.56 | 3.1 | 3.7 |

Now from value to compound:

| IC50 (EGFR) [nM] | IC50 (HER2) [nM] | IC50 (HER4) [nM] | Structure (SMILES) |
| --- | --- | --- | --- |
| – | 6.5 | 3.4 | C=CC(=O)Nc1cc2c(Nc3ccc(F)c(Cl)c3)ncnc2cc1OCC[C@@H]1[C@H]2CN(C)C[C@@H]12 [Compound 8] |
| 0.39 | 2.6 | 1.2 | C=CC(=O)Nc1cc2c(Nc3ccc(F)c(Cl)c3)ncnc2cc1OCCC1CC12CCN(C)CC2 (stereo not shown) [Compound 14, N-[4-(3-chloro-4-fluorophenylamino)-7-(2-(6-methyl-6-azaspiro[2.5]octan-1-yl)ethoxy)quinazolin-6-yl]-acrylamide] |
